Test results published in EP1304101A1, “Composition and method for use of pyridinium derivatives in cosmetic and therapeutic applications” (Torrent Pharmaceuticals Ltd, priority 2001, dated 2003).

What was measured:
Maillard reaction = assay: AGE inhibiting activity, Method I (BSA + ribose, fluorescence); format: biochemical; details: 37° C for 7 days
Experimental: The following method was used to determine the inhibitory effect of the test compound on Maillard reaction in-vitro.
Addition of compound was done in aseptic conditions. Sodium azide (0.02%) was also added in this solution in order to prevent microbial growth. A separate tube containing BSA, ribose and sodium azide in the same concentration and buffer as above, but without any test compound, was also incubated as positive control.
After incubation at 37° C for 7 days, 40 micro litre sample from each tube was removed and diluted with PBS to have final concentration of BSA at 1mg/ml. The fluorescence of all the samples was measured at Excitation Maximum of 355nM and the Emission Maximum of 460nM using f-MAX Fluorimeter (Molecular Device, USA). In order to study the effect of test compound on fluorescence, freshly prepared compound solution was mixed with previously incubated positive control (i.e. BSA + ribose), so as to achieve same concentration of all the components as that of test samples.
The percent inhibition of test compound was measured as follows: % Inhibition =(F4 - F3)/(F4)X 100 [formula] Where F3 = Fluorescence of BSA + ribose + compound,F4 is fluorescence of incubated (BSA + ribose) + freshly added test compound.

AGE-BSA = target: T1, AGE-BSA (Bos taurus, UniProt P02769); assay: In-vitro AGE breaking activity by ELISA (16 weeks AGE-BSA incubated with test compound); format: biochemical, bovine; details: for % Breakage: 37°C, 24 hours; for AGE breaking activity compared to PTB: comparison in words based on Table 2
T1 construct: Bovine serum albumin (fraction V) (BSA); from tissue
Experimental: AGE breaking activity has been confirmed by the screening procedure as mentioned below: • Materials: • Bovine serum albumin (fraction V) (BSA) • Glucose, analytical grade • Phosphate buffered saline (PBS) • Equipment: • Microplate ELISA Reader - Spectramax Plus (Molecular Devices, USA) • Microplate washer, (Bio -Tec Instruments, USA) • pH meter • Methods of experiment: Elisa (Enzyme Linked Immunosorbent Assay) 160 mg/ml of protein, bovine serum albumin, BSA and 1.6M glucose sugar were dissolved in phosphate buffered saline, PBS. Sodium azide was added at 0.02% concentration as a preservative. The solution was filtered asceptically through a 0.22 µM filter and kept for aging at 37°C for 16 weeks. After 16 weeks the solution was dialyzed against PBS, aliquoted and stored at - 20°C.
To determine the AGE breaking activity, 10 µg/ml of the 16 weeks AGE-BSA was incubated with different concentrations of the test compounds at 37°C for 24 hours and AGE breaking activity of the test compounds by ELISA was determined.
Different concentrations of 16 weeks AGE-BSA were coated on a microtitre plate as standard. Each concentration is coated in triplicates. • 2. The test samples were coated on microtitre plate at a concentration of 5 ng. to 20 ng per well in triplicates. • 3. The plate was incubated at 37°C for one hour. • 4. After incubation the plate was washed with PBST (PBS with 0.05% Tween 20). • 5. Blocking with 5% skimmed milk in PBS at 37°C for one hour was done. • 6. The plate was washed with PBST. • 7. Primary antibody against AGE-BSA was added and the plate is incubated at 37°C for one hour. • 8. The plate was washed with PBST • 9. Secondary antibody anti rabbit HRPO (Horse-Radish Per Oxidase) conjugate was added and the plate is incubated at 37°C for one hour. • 10. The plate was washed with PBST. • 11. Colour development with OPD (orthophenylenediamine dihydrochloride) and hydrogen peroxide was done. • 12. OD (optical density) at (450nm reading - 620nm reading) was measured after incubation at 37°C for 15 minutes with Microplate ELISA Reader.
The breaker activity of the compounds were determined by the following formula: % Breaker activity =(OD450-620 Control - OD450-620 Test)/(OD450-620 Control)x 100 [formula] OD450-620Control= Absorbance of 20ng AGE-BSA after incubation at 37°C for 24 hours without test compound OD450-620Test= Absorbance of 20ng AGE-BSA after incubation at 37°C for 24 hours with required concentration of test compound

[1] = Free radical scavenging activity on ABTS radical cation (absorbance at 730nm); format: biochemical
Experimental: This method measures the relative ability of free radical scavenging substances to scavenge the ABTS ^.+ i.e. 2,2-Azino-bis-(3-ethyl benzo thiazoline-6-sulfonate) radical cation as compared to a standard amount of standard or free radical scavengers antioxidants. Incubation of ABTS with Peroxidase (metmyoglobin) and hydrogen peroxide results in the production of radical cation ABTS^.+ . This species is blue- green in colour and can be detected at 730nm. Antioxidants or free radical scavengers in the added sample that causes suppression of the color to a degree that is proportional to their concentration.
• A. Phosphate Citrate Buffer (pH 5.0): 48.5ml of 0.1M citric acid with sufficient 0.2M disodium hydrogen phosphate to produce 100 ml. • B. Phosphate Buffer Saline (PBS): Dissolve 40.0g of NaCl, 1.0g of KCI, 1.0g of KH2PO4 and 3.05g of Na2HPO4 in 1 litre milli-Q water. Dilute 200ml of above solution to 1 litre with milli-Q water (pH 7.4-7.6). • C. 3µM stock solution of Peroxidase was prepared in phosphate buffer saline pH 7.4(PBS). • D. 1.08 mM stock solution of Hydrogen peroxide was prepared in phosphate buffer saline pH 7.4 (PBS).
1 tablet (10mg) was dissolved in phosphate citrate buffer (pH 5.0).
5.0ml of ABTS stock solution was diluted with PBS to 20 ml.
320 µg of the enzyme was dissolved in 2.5 ml of PBS.
12µl of Hydrogen Peroxide (30%w/v) was diluted to 100ml with PBS.
0.1mM of stock solution of the drug was prepared which was serially diluted in PBS to get solutions of different concentrations.
To 18ml of ABTS stock solution, 100µl of Horseradish Peroxidase stock solution was added.
As soon as 1.5 ml of hydrogen peroxide solution was added to the above solution, blue-green colour of the ABTS radicals appeared. This solution was incubated at 30°C for 30 min.
980µl of ABTS radical stock solution was added to an eppendorf tube. To it was added 100µl of various PBS solution.
980µl of ABTS radical stock solutions were added to different eppendorf tubes. To it were added 100µl of various concentrations of drug solution.
The absorbance of control and test samples was recorded immediately at 730nm taking PBS as blank.
Calculation: The percent antioxidant activity was calculated according to the formula: % Antioxidant activity = [O.D of test sample/O.D of control*100]-100.

Rat Tail Tendon Collagen = assay: In-vivo AGE breaking: collagen solubility in rat tail tendon of STZ-diabetic rats after 8 weeks of treatment; design: species or system male wister rats; details: 8 weeks treatment
Excerpt: The results are mentioned in Table 3 below:
A brief summary of observation is as follows.

T1 sequence (P02769 25-607): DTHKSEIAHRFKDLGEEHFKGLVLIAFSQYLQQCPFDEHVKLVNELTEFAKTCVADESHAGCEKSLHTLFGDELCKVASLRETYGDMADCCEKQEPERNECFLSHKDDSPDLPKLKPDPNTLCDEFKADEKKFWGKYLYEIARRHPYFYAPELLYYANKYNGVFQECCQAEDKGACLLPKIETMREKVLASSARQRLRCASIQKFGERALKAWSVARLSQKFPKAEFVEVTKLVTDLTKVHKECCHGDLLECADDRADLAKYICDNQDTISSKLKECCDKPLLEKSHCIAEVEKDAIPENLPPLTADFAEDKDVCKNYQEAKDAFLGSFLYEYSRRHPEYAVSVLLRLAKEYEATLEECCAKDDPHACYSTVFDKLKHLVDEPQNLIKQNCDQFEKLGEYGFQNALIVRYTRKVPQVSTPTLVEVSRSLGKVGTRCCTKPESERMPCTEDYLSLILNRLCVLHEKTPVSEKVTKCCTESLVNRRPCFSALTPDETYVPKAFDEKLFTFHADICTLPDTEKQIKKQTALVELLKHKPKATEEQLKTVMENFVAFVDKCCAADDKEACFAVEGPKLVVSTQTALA

Structure (SMILES)	%Inhibition (Day 7) (Maillard reaction; 10mM) [%]	% Breakage (AGE-BSA; 10 mM test compound) [%]	% Breakage (AGE-BSA; 50 mM test compound) [%]	Relative Free Radical Scavenging Activity(%) on ABTS ([1]; 11.5µM) [%]	Relative Free Radical Scavenging Activity(%) on ABTS ([1]; 23.0µM) [%]	Relative Free Radical Scavenging Activity(%) on ABTS ([1]; 46.0µM) [%]	Relative Free Radical Scavenging Activity(%) on ABTS ([1]; 92.5µM) [%]	% Improvement in collagen solubility with respect to untreated control subject. (Rat Tail Tendon Collagen; 10.0mg/kg) [%]	% Breakage (AGE-BSA; 5 mM test compound) [%]	AGE breaking activity compared to PTB (AGE-BSA)	% Improvement in collagen solubility with respect to untreated control subject. (Rat Tail Tendon Collagen; 7.5mg/kg) [%]	%Inhibition (Day 7) (Maillard reaction; 2.5mM) [%]	Relative Free Radical Scavenging Activity(%) on ABTS ([1]; 23 µM) [%]	Relative Free Radical Scavenging Activity(%) on ABTS ([1]; 46 µM) [%]	% Improvement in collagen solubility with respect to untreated control subject. (Rat Tail Tendon Collagen; 15.0 mg/kg) [%]	% Improvement in collagen solubility with respect to untreated control subject. (Rat Tail Tendon Collagen; 6.0mg/kg) [%]	%Inhibition (Day 7) (Maillard reaction; 6.25mM) [%]
CS(=O)(=O)NNC(=O)c1ccc[n+](CC(=O)c2cccs2)c1.[Br-] [Compound 5, 1-(2-thien-2'-yl-2-oxoethyl) -3-(methanesulfonylhydrazinocarbonyl) pyridinium bromide]	70	16	68	47.2	65.6	83.7	100	88.80									
O=C(NNC(=O)c1ccc[n+](CC(=O)c2cccs2)c1)c1ccc[n+](CC(=O)c2cccs2)c1.[Br-].[Br-] [Compound 6, N, N'-bis [3-carbonyl-1-(2-thien-2'-yl-2-oxoethyl)pyridinium] hydrazine dibromide]									53	superior	56.70						
O=C(NNC(=O)c1ccc[n+](CC(=O)c2cccs2)c1)c1ccc[n+](CC(=O)c2cccs2)c1.[Cl-].[Cl-] [Compound 33, N, N'-bis [3-carbonyl-1-(2-thien-2'-yl-2-oxoethyl)pyridinium] hydrazine dichloride]				58.4			100		20	superior		68.4	72.8	98.5	80.45		
O=C(C[n+]1cccc(C(=O)NNC(=O)c2ccc[n+](CC(=O)NC3CC3)c2)c1)NC1CC1 [Compound 39, N, N'-bis-[3-carbonyl-1-(2-cyclopropylamino-2-oxoethyl)pyridinium] hydrazine dichloride]				43.0	62.8	95.6	98		22.8	superior						28.00	
CCOC(=O)NNC(=O)c1ccc[n+](CC(=O)c2cccs2)c1 [Compound 54, 1-(2-thien-2'-yl-2-oxoethyl)-3-(ethoxycarbonyl hydrazinocarbonyl) pyridinium bromide]		33.43		5.22	15.45	46.82	77.07					46.3					
Cc1ccc(C(=O)C[n+]2cccc(C(=O)NNS(C)(=O)=O)c2)s1.[Cl-] [Compound 63, 1-(2-(5-methylthien-2-yl)-2-oxoethyl)-3-(methanesulfonyl hydrazinocarbonyl) pyridinium chloride]		25.17		10.75	47.20	88.64	99.18										58.15
